Data published in US10265307B2, “Thiazolecarboxamides and pyridinecarboxamide compounds useful as Pim kinase inhibitors” (Incyte Corporation, priority 2013, dated 2019).

Assays:
Assay type in all cases: biochemical
Pim-1 = Pim-1 (Homo sapiens (Human), UniProt P11309); experiment: Pim-1 kinase assay; conditions: 1 mM ATP; read-out: Pim1 IC50
Method: Supplementation of the STOP buffer with beads and stopping the reactions were done under reduced light. Prior to the stopping reactions STOP buffer with beads was pre-incubated for 1 h in the dark at room temperature. After stopping the reactions, plates were incubated for 1 h in the dark at room temperature before reading on a PHERAstar FS plate reader (BMG Labtech) under reduced light.

Pim-2 = Pim-2 (Homo sapiens (Human), UniProt Q9P1W9); experiment: Pim-2 kinase assay; conditions: 1 mM ATP; read-out: Pim2 IC50
Method: Pim-2 kinase assay-20 μL reactions were run in white 384 well polystyrene plates dotted with 0.8 μL compound/DMSO in the assay buffer (50 mM Tris, pH 7.5, 0.01% Tween-20, 5 mM MgCl2, 0.01% BSA, 5 mM DTT), containing 0.05 μM Fluorescein-labeled CREBtide peptide substrate (Invitrogen PV3508), 1 mM ATP, and 1 nM enzyme (Invitrogen PV3649) for 2 h at 25° C. Reactions were stopped by addition of 10 μL TR-FRET Dilution Buffer (Invitrogen PV3574) with 30 mM EDTA and 1.5 nM LanthaScreen Tb-CREB pSer133 antibody (Invitrogen PV3566). After 30 min. incubation at room temperature, plates were read on a PHERAstar FS plate reader (BMG Labtech).
Although the above in vitro assays are conducted at 1 mM ATP compounds can also be evaluated for potency and in vitro activity against PIM targets utilizing Km conditions, where the concentration of ATP is set to the Km value and the assay is more sensitive to PIM inhibition activity.

Pim-3 = Pim-3 (Homo sapiens (Human), UniProt Q86V86); experiment: Pim-3 kinase assay; conditions: 1 mM ATP; read-out: Pim3 IC50
Method: Pim-1 and Pim-3 kinase assays-20 μL reactions were run in white 384 well polystyrene plates dotted with 0.8 μL compound/DMSO in the assay buffer (50 mM Tris, pH 7.5, 0.01% Tween-20, 5 mM MgCl2, 0.01% BSA, 5 mM DTT), containing 0.05 μM Biotin-labeled BAD peptide substrate (AnaSpec 62269), 1 mM ATP, and […] (Pim-1, Invitrogen PV3503) or […] (Pim-3, Millipore 14-738) enzyme for 1 h at 25° C. Reactions were stopped by addition of 10 μL STOP Buffer (150 mM Tris, pH=7.5, 150 mM NaCl, 75 mM EDTA, 0.01% Tween-20, 0.3% BSA) supplemented with Phospho-Bad (Ser112) Antibody (Cell Signaling 9291) diluted 666-fold, and Streptavidin donor beads (PerkinElmer 6760002) along with Protein-A acceptor beads (PerkinElmer 6760137) at 15 μg/mL each. Supplementation of the STOP buffer with beads and stopping the reactions were done under reduced light. Prior to the stopping reactions STOP buffer with beads was pre-incubated for 1 h in the dark at room temperature. After stopping the reactions, plates were incubated for 1 h in the dark at room temperature before reading on a PHERAstar FS plate reader (BMG Labtech) under reduced light.

Chain of Pim-1 (P11309 whole entry): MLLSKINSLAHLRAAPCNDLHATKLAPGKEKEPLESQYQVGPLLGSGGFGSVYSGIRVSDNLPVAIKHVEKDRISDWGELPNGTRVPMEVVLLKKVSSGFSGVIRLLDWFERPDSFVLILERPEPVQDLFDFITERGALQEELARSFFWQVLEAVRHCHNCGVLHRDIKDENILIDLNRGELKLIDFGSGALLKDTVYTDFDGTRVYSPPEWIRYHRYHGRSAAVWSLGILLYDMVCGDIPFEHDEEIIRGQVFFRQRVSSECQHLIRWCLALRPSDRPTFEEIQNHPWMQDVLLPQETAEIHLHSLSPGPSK
Chain of Pim-2 (Q9P1W9 whole entry): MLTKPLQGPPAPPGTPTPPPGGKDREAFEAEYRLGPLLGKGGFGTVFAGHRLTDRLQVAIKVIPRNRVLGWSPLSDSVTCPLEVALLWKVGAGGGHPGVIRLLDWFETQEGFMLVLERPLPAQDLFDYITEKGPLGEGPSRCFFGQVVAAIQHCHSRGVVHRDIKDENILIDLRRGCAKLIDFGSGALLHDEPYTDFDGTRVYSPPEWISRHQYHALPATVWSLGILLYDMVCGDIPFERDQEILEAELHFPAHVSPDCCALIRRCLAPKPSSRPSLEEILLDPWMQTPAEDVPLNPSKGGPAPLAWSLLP

Row | SMILES | IC50 (Pim-1) [µM] | IC50 (Pim-2) [µM] | IC50 (Pim-3) [µM]
1 | C[C@H]1CN(c2c(NC(=O)c3ccc(F)c(-c4c(F)cc(OC5CCCOC5)cc4F)n3)cnc3c2CCO3)C[C@@H](N)[C@@H]1O (stereo partly drawn) [Example 69, N-{4-[(3R,4R,5S)-3-amino-4-hydroxy-5-methylpiperidin-1-yl]-2,3-dihydrofuro[2,3-b]pyridin-5-yl}-6-[2,6-difluoro-4-(tetrahydro-2H-pyran-3-yloxy)phenyl]-5-fluoropyridine-2-carboxamide] | ≤ 0.1 | ≤ 0.1 | ≤ 0.1
2 | N[C@H]1CCCN(c2c(NC(=O)c3csc(-c4c(F)cccc4F)n3)cnc3ccsc23)C1 [Example 6, N-{7-[(3S)-3-Aminopiperidin-1-yl]thieno[3,2-b]pyridin-6-yl}-2-(2,6-difluorophenyl)-1,3-thiazole-4-carboxamide] | ≤ 0.1 | > 2 | ≤ 0.1
3 | C[S+]([O-])c1cc(F)c(-c2nc(C(=O)Nc3cnc4c(c3N3CCC[C@H](N)C3)CCC4O)ccc2F)c(F)c1 (single isomer, unassigned) [59 (Diastereoisomer 2)] | ≤ 0.1 | 0.1 to 1 | ≤ 0.1
4 | C[C@@H]1C[C@H](N)CN(c2c(NC(=O)c3ccc(F)c(-c4c(F)cccc4F)n3)cnc3c2CCC3O)C1 (single isomer, unassigned) [45 (Diastereoisomer 2)] | ≤ 0.1 | ≤ 0.1 | ≤ 0.1
5 | C[C@H]1CN(c2c(NC(=O)c3nc(-c4c(F)cccc4F)sc3N)cnc3c2CCC3O)C[C@@H](N)[C@@H]1O (single isomer, unassigned) [49 (Diastereoisomer 2)] | ≤ 0.1 | ≤ 0.1 | ≤ 0.1
6 | C[C@@H]1C[C@H](N)CN(c2c(NC(=O)c3ccc(F)c(-c4c(F)cc(C(C)(C)O)cc4F)n3)cnc3c2CCC3O)C1 (single isomer, unassigned) [67 (Diastereoisomer 1)] | ≤ 0.1 | ≤ 0.1 | ≤ 0.1
7 | C[C@H]1CN(c2c(NC(=O)c3nc(-c4c(F)cccc4F)sc3N)cnc3c2CCO3)C[C@@H](N)[C@@H]1O [Example 40, 5-Amino-N-{4-[(3R,4R,5S)-3-amino-4-hydroxy-5-methylpiperidin-1-yl]-2,3-dihydrofuro[2,3-b]pyridin-5-yl}-2-(2,6-difluorophenyl)-1,3-thiazole-4-carboxamide] | ≤ 0.1 | ≤ 0.1 | ≤ 0.1
8 | COc1ccc(F)c(-c2nc(C(=O)Nc3cnc4c(c3N3CCC[C@H](N)C3)CCC4O)ccc2F)c1F (single isomer, unassigned) [55 (Diastereoisomer 2)] | ≤ 0.1 | ≤ 0.1 | ≤ 0.1
9 | C[C@@H]1C[C@H](N)CN(c2c(NC(=O)c3nc(-c4c(F)cccc4F)sc3N)cnc3c2CCO3)C1 [Example 36, 5-Amino-N-{4-[(3S,5R)-3-amino-5-methylpiperidin-1-yl]-2,3-dihydrofuro[2,3-b]pyridin-5-yl}-2-(2,6-difluorophenyl)-1,3-thiazole-4-carboxamide] | ≤ 0.1 | ≤ 0.1 | ≤ 0.1
10 | Nc1sc(-c2c(F)cccc2F)nc1C(=O)Nc1cnc2ccsc2c1N1CC[C@H](O)[C@H](N)C1 (single isomer, unassigned) [Example 30, 5-Amino-N-{7-[3.4-cis-3-amino-4-hydroxypiperidin-1-yl]thieno[3,2-b]pyridin-6-yl}-2-(2,6-difluorophenyl)-1,3-thiazole-4-carboxamide] | ≤ 0.1 | 0.1 to 1 | ≤ 0.1
11 | C[C@H]1CN(c2c(NC(=O)c3ccc(F)c(-c4c(F)cccc4F)n3)cnc3c2CCC3O)C[C@@H](N)C1(C)O (single isomer, unassigned) [63 (Diastereoisomer 1)] | ≤ 0.1 | ≤ 0.1 | ≤ 0.1
12 | C[C@@H]1C[C@H](N)CN(c2c(NC(=O)c3nc(-c4c(F)cccc4F)c(F)cc3N)cnc3c2CCC3O)C1 (single isomer, unassigned) [46 (Diastereoisomer 2)] | ≤ 0.1 | ≤ 0.1 | ≤ 0.1
13 | COc1ccc(F)c(-c2nc(C(=O)Nc3cnc4c(c3N3CCC[C@H](N)C3)CCC4O)c(N)s2)c1F (single isomer, unassigned) [53 (Diastereoisomer 2)] | ≤ 0.1 | ≤ 0.1 | ≤ 0.1
14 | CCOc1cc(F)c(-c2nc(C(=O)Nc3cnc4c(c3N3C[C@@H](N)[C@H](O)[C@@H](C)C3)CCC4O)ccc2F)c(F)c1 (single isomer, unassigned) [51 (Diastereoisomer 1)] | ≤ 0.1 | ≤ 0.1 | ≤ 0.1
15 | Nc1sc(-c2c(F)cccc2F)nc1C(=O)Nc1cnc2c(c1N1CC[C@H](O)[C@H](N)C1)CCC2 (single isomer, unassigned) [Example 27, 5-Amino-N-{4-[3.4-cis-3-amino-4-hydroxypiperidin-1-yl]-6,7-dihydro-5H-cyclopenta[b]pyridin-3-yl}-2-(2,6-difluorophenyl)-1,3-thiazole-4-carboxamide] | ≤ 0.1 | ≤ 0.1 | ≤ 0.1
16 | C[C@H]1CN(c2c(NC(=O)c3ccc(F)c(-c4c(F)cc(C(C)(C)O)cc4F)n3)cnc3c2CCO3)C[C@@H](N)[C@@H]1O [Example 65, N-{4-[(3R,4R,5S)-3-Amino-4-hydroxy-5-methylpiperidin-1-yl]-2,3-dihydrofuro[2,3-b]pyridin-5-yl}-6-[2,6-difluoro-4-(1-hydroxy-1-methylethyl)phenyl]-5-fluoropyridine-2-carboxamide] | ≤ 0.1 | ≤ 0.1 | ≤ 0.1
17 | CS(=O)(=O)c1cc(F)c(-c2nc(C(=O)Nc3cnc4c(c3N3CCC[C@H](N)C3)CCC4O)ccc2F)c(F)c1 (single isomer, unassigned) [61 (Diastereoisomer 2)] | ≤ 0.1 | 0.1 to 1 | ≤ 0.1
18 | C[C@H]1CN(c2c(NC(=O)c3nc(-c4c(F)cccc4F)sc3N)cnc3c2CCC3O)C[C@@H](N)[C@@H]1O (single isomer, unassigned) [49 (Diastereoisomer 1)] | ≤ 0.1 | ≤ 0.1 | ≤ 0.1
19 | CSc1cc(F)c(-c2nc(C(=O)Nc3cnc4c(c3N3CCC[C@H](N)C3)CCC4O)ccc2F)c(F)c1 (single isomer, unassigned) [58 (Diastereoisomer 1)] | ≤ 0.1 | 0.1 to 1 | ≤ 0.1
20 | Nc1cc(F)c(-c2c(F)cccc2F)nc1C(=O)Nc1cnc2c(c1N1CCC[C@H](N)C1)CCO2 [Example 12, 3-Amino-N-{4-[(3S)-3-aminopiperidin-1-yl]-2,3-dihydrofuro[2,3-b]pyridin-5-yl}-6-(2,6-difluorophenyl)-5-fluoropyridine-2-carboxamide] | ≤ 0.1 | ≤ 0.1 | ≤ 0.1
21 | C[C@H]1CN(c2c(NC(=O)c3nc(-c4c(F)cccc4F)c(F)cc3N)cnc3c2CCO3)C[C@@H](N)[C@@H]1O [Example 71, 3-Amino-N-{4-[(3R,4R,5S)-3-amino-4-hydroxy-5-methylpiperidin-1-yl]-2,3-dihydrofuro[2,3-b]pyridin-5-yl}-6-(2,6-difluorophenyl)-5-fluoropyridine-2-carboxamide] | ≤ 0.1 | ≤ 0.1 | ≤ 0.1
22 | Nc1sc(-c2c(F)cccc2F)nc1C(=O)Nc1cnc2c(c1N1CC[C@H](O)[C@@H](N)C1)CCC2 (single isomer, unassigned) [Example 24, 5-Amino-N-{4-[3,4-trans-3-amino-4-hydroxypiperidin-1-yl]-6,7-dihydro-5H-cyclopenta[b]pyridin-3-yl}-2-(2,6-difluorophenyl)-1,3-thiazole-4-carboxamide] | ≤ 0.1 | > 2 | ≤ 0.1
23 | Nc1sc(-c2c(F)cccc2F)nc1C(=O)Nc1cnc2ccsc2c1N1CCC[C@H](N)C1 [Example 5, 5-Amino-N-{7-[(3S)-3-aminopiperidin-1-yl]thieno[3,2-b]pyridin-6-yl}-2-(2,6-difluorophenyl)-1,3-thiazole-4-carboxamide] | ≤ 0.1 | ≤ 0.1 | ≤ 0.1
24 | COc1ccc(F)c(-c2nc(C(=O)Nc3cnc4c(c3N3C[C@H](C)C[C@H](N)C3)CCC4O)ccc2F)c1F (single isomer, unassigned) [56 (Diastereoisomer 2)] | ≤ 0.1 | ≤ 0.1 | ≤ 0.1
